Measurements as given in patent US20240255531A1, “MATURE ADRENOMEDULLIN FOR THERAPY STRATIFICATION OF CORTICOSTEROIDS IN CRITICALLY ILL PATIENTS” (priority 2021, published 2024).
Read-outs that look alike come from different tables or passages of the source.

Columns and labels:
[1] = relative to hydrocortisone; cited from earlier work
[2] = relative to hydrocortisone; cited from earlier work; remark: listed apart in the source
[3] = test system: hypothalamic-pituitary-adrenal axis suppression; details: cited from earlier work
[4] = test system: patients with septic shock; details: hydrocortisone alone; cited from earlier work
[5] = test system: adult patients with severe sepsis who were not in septic shock; assay: HYPRESS case-control analysis, hydrocortisone vs. placebo by bio-ADM </>70 pg/mL (PP population); type: in vivo, human; details: for patients who developed shock: PP population
Experimental: The HYPRESS study is a double-blind, randomized clinical trial conducted from Jan. 13, 2009, to Aug. 27, 2013, with a follow-up of 180 days until Feb. 23, 2014 (Keh et al. 2016. JAMA 316(17): 1775-1785). The trial was performed in 34 intermediate or intensive care units of university and community hospitals in Germany, and it included 380 adult patients with severe sepsis who were not in septic shock.
Patients were screened in intermediate care units or intensive care units (ICUs) of university and community hospitals for eligibility, and written informed consent was obtained from patients, patient-authorized representatives, or legal representatives. Patients were enrolled if they met all inclusion criteria: (1) provided informed consent; (2) had evidence of infection; (3) had evidence of a systemic response to infection, defined as at least 2 systemic inflammatory response syndrome criteria 12; and (4) had evidence of organ dysfunction present for not longer than 48 hours. The main exclusion criterion was septic shock. Other exclusion criteria were being younger than 18 years, having known hypersensitivity to hydrocortisone or mannitol (placebo), or having a history of glucocorticoid medication with indication for continuation of therapy or other indications for treatment with glucocorticoids. Patients were not excluded for using etomidate within 72 hours before enrolment, using a short course of glucocorticoids within 72 hours before enrolment, or using topical or inhaled glucocorticoids.
Septic shock was defined as sepsis-induced hypotension despite adequate volume status for longer than 4 hours (ie, mean arterial pressure <65 mm Hg, systolic arterial pressure <90 mm Hg, or the use of vasopressors to keep mean arterial pressure ≥65 mm Hg or systolic arterial pressure ≥90 mm Hg). […] Adequate volume status was defined as a central venous pressure of 8 mm Hg or greater (≥12 mm Hg in ventilated patients) and a central venous oxygen saturation greater than 70%. For fluid replacement, patients were to receive at least 500 to 1000 mL of crystalloids or 300 to 500 mL of colloids over 30 minutes. The use of hydroxyethyl starch preparations was discouraged owing to possible harmful effects on kidney function. Use of vasopressors was defined as therapy with dopamine at a dosage of at least 5 μg/kg/min or with any dose of epinephrine, norepinephrine, vasopressin, or other vasopressors.
The study medication (hydrocortisone and placebo) was produced and released by BAG Health Care GmbH. The medication was delivered in boxes, each containing 17 brown glass vials for 1 patient. Each vial contained 100 mg of lyophilized hydrocortisone hydrogen succinate or the same amount of lyophilized mannitol as placebo, which was indistinguishable from hydrocortisone. The medication was administered as an intravenous bolus of 50 mg, followed by a 24-hour continuous infusion of 200 mg on 5 days, 100 mg on days 6 and 7, 50 mg on days 8 and 9, and 25 mg on days 10 and 11.
For the present analysis, a total of n=110 cases and controls from the intention-to-treat data set of the SepNet study HYPRESS study (ClinicalTrials.gov number: NCT00670254) were selected, of which n=97 were treated according to protocol and selected for the analysis. Patients with and without septic shock during their ICU stay were selected at a 1:1 ratio. Control patients were matched according to demographics, organ dysfunction, concomitant medication and other outcomes.
The primary end point for the case-control study was the occurrence of septic shock within 28 days, or discharge from the ICU. The goal was to identify potential interaction between the levels of bio-ADM (</>70 pg/mL) and treatment arm (hydrocortisone vs. placebo).

[6] = test system: patients at risk for sepsis / septic shock; details: preventive administration; cited from earlier work
[7] = Stability of human Adrenomedullin in human Citrate plasma at 24° C.; type: in vitro ADME; details: for recovery: 10 ng ADM/ml, read-out: Average ADM recovery (N = 5); for Average loss of immune reactivity: average over time points
Experimental: Human ADM was diluted in human Citrate plasma (n=5, final concentration 10 ng ADM/ml) and incubated at 24° C. At selected time points, aliquots were frozen at −20° C.

CC(=O)OCC(=O)[C@@]1(O)CC[C@H]2[C@@H]3CCC4=CC(=O)CC[C@]4(C)[C@H]3C(=O)C[C@@]21C [Cortisone acetate]
Potency relat. to hydrocortisone, Mineralcorticoid [1]: 0.8 | Potency relat. to hydrocortisone, Anti-inflammatory [2]: 0.8 | Half-life duration of action [3]: 8 to 12 h

C[C@]12CCC(=O)C=C1CC[C@H]1[C@@H]3CC[C@](O)(C(=O)CO)[C@@]3(C)C[C@H](O)[C@@]12F [Fludrocortisone]
Half-life duration of action [3]: 24 to 36 h

C[C@]12CCC(=O)C=C1CC[C@@H]1[C@@H]2[C@@H](O)C[C@@]2(C)[C@H]1CC[C@]2(O)C(=O)CO [Hydrocortisone]
survival effect [4]: no survival effect | Potency relat. to hydrocortisone, Mineralcorticoid [1]: 1 | Potency relat. to hydrocortisone, Anti-inflammatory [2]: 1 | needed additional treatment with Benzodiazepine ([5]; patients with bio-AD<70 pg/mL): 12.0% | median length of stay ([5]; patients with bio-ADM<70 pg/mL): 22 days | needed a surgical intervention ([5]; patients with bio-ADM<70 pg/mL): 48.0% | needed additional treatment with Propofol ([5]; patients with bio-ADM<70 pg/mL): 16.0% | needed additional treatment with opioids ([5]; patients with bio-ADM<70 pg/mL): 40.0% | survived the 90-day follow up ([5]; patients with bio-ADM<70 pg/mL): 76.0% | patients who developed shock ([5]; patients with bio-ADM<70 pg/mL): 40% | median length of stay ([5]; patients with bio-ADM>70 pg/mL): 25 days | needed a surgical intervention ([5]; patients with bio-ADM>70 pg/mL): 27.3% | needed additional treatment with Benzodiazepine ([5]; patients with bio-ADM>70 pg/mL): 13.6% | needed additional treatment with Propofol ([5]; patients with bio-ADM>70 pg/mL): 4.5% | needed additional treatment with opioids ([5]; patients with bio-ADM>70 pg/mL): 31.8% | survived the 90-day follow up ([5]; patients with bio-ADM>70 pg/mL): 72.7% | patients who developed shock ([5]; patients with bio-ADM>70 pg/mL): 50% | risk of a septic shock within 14 days [6]: doesn't reduces the risk | Half-life duration of action [3]: 8 to 12 h

C[C@H]1C[C@@H]2[C@H]([C@@H](O)C[C@@]3(C)[C@H]2CC[C@]3(O)C(=O)CO)[C@@]2(C)C=CC(=O)C=C12 [Methylprednisolone]
Half-life duration of action [3]: 12 to 36 h

C[C@]12C=CC(=O)C=C1CC[C@@H]1[C@@H]2[C@@H](O)C[C@@]2(C)[C@H]1CC[C@]2(O)C(=O)CO [Prednisolone]
Potency relat. to hydrocortisone, Mineralcorticoid [1]: 0.8 | Potency relat. to hydrocortisone, Anti-inflammatory [2]: 4 | Half-life duration of action [3]: 12 to 36 h

C[C@]12C=CC(=O)C=C1CC[C@@H]1[C@@H]2C(=O)C[C@@]2(C)[C@H]1CC[C@]2(O)C(=O)CO [Prednisone]
Half-life duration of action [3]: 12 to 36 h

CC[C@H](C)[C@H](NC(=O)[C@H](CCC(N)=O)NC(=O)[C@H](Cc1c[nH]cn1)NC(=O)[C@H](C)NC(=O)[C@H](CC(C)C)NC(=O)[C@H](CCCCN)NC(=O)[C@H](CCC(N)=O)NC(=O)[C@@H](NC(=O)[C@@H](NC(=O)[C@@H]1CSSC[C@H](NC(=O)CNC(=O)[C@H](Cc2ccccc2)NC(=O)[C@H](CO)NC(=O)[C@H](CCCNC(=N)N)NC(=O)[C@H](CC(C)C)NC(=O)CNC(=O)[C@H](CCC(N)=O)NC(=O)[C@H](Cc2ccccc2)NC(=O)[C@H](CC(N)=O)NC(=O)[C@H](CC(N)=O)NC(=O)[C@H](CCSC)NC(=O)[C@H](CO)NC(=O)[C@H](CCC(N)=O)NC(=O)[C@H](CCCNC(=N)N)NC(=O)[C@@H](N)Cc2ccc(O)cc2)C(=O)N[C@@H](CCCNC(=N)N)C(=O)N[C@@H](Cc2ccccc2)C(=O)NCC(=O)N[C@@H]([C@@H](C)O)C(=O)N1)[C@@H](C)O)C(C)C)C(=O)N[C@@H](Cc1ccc(O)cc1)C(=O)N[C@@H](CCC(N)=O)C(=O)N[C@@H](Cc1ccccc1)C(=O)N[C@H](C(=O)N[C@@H](CC(=O)O)C(=O)N[C@@H](CCCCN)C(=O)N[C@@H](CC(=O)O)C(=O)N[C@@H](CCCCN)C(=O)N[C@@H](CC(=O)O)C(=O)N[C@@H](CC(N)=O)C(=O)N[C@H](C(=O)N[C@@H](C)C(=O)N1CCC[C@H]1C(=O)N[C@@H](CCCNC(=N)N)C(=O)N[C@@H](CO)C(=O)N[C@@H](CCCCN)C(=O)N[C@H](C(=O)N[C@@H](CO)C(=O)N1CCC[C@H]1C(=O)N[C@@H](CCC(N)=O)C(=O)NCC(=O)N[C@@H](Cc1ccc(O)cc1)C(N)=O)[C@@H](C)CC)C(C)C)[C@@H](C)O [hADM]
recovery ([7]; 0 h): 100% | Loss of immune reactivity %/h ([7]; 2 h): 0.4 %/h | recovery ([7]; 2 h): 99.2% | Loss of immune reactivity %/h ([7]; 4 h): 0.8 %/h | recovery ([7]; 4 h): 96.4% | Loss of immune reactivity %/h ([7]; 8 h): 1.5 %/h | recovery ([7]; 8 h): 88.2% | Average loss of immune reactivity [7]: Average: 0.9%/h | Average loss of immune reactivity ([7]; listed as ADM): 0.9 %/h | metabolised at 2 h, 10 ng/ml ([7]; human citrate plasma, 2 h, read-out: Relative loss of immune reactivity): 0.8% | metabolised at 4 h, 10 ng/ml ([7]; human citrate plasma, 4 h, read-out: Relative loss of immune reactivity): 3.6% | metabolised at 8 h, 10 ng/ml ([7]; human citrate plasma, 8 h, read-out: Relative loss of immune reactivity): 11.8%
